Values of other authors as cited in patent publication US20230405076A1, “COMPOSITION COMPRISING AKKERMANSIA MUCINIPHILA AND GREEN TEA EXTRACT” (A-MANSIA BIOTECH, priority 2020, published 2023).

Columns and labels:
[1] = tested on: Akkermansia genus in the Verrucomicrobia; details: high fat diet mice, Ushiroda 2019
[2] = via EGCG promoted increase of Akkermansia muciniphila, Sheng 2018

Question: For Epigallocatechin-3-gallate, which “abundance of the Akkermansia genus” value [1] is on record?
Answer: increase

Question: And the “diet-increased obesity, visceral fat, and insulin resistance” value [2]?
Answer: effectively reduces
